Read-outs that look alike come from different tables or passages of the source.
Tests used:
Echinochloa crus-galli = test: Herbicidal activity to barnyardgrass in paddy condition, pre- and post-emergence, greenhouse pot test; type: in vivo; conditions: for pest or weed control at 5 g/ha / pest or weed control at 10 g/ha / pest or weed control at 20 g/ha / pest or weed control at 30 g/ha: Echinochloa crus-galli, 336 h, visual rating after two weeks
Source text: (§1) Pots having a surface area of 150 cm^2 were filled with a small amount of fertilizer and sterilized paddy field soil in a muddy state with a depth of 5 cm. Five (5) seeds of pre-germinated rice were directly sown on the soil surface and three (3) rice seedlings (2˜3 leaves) prepared in advance were transplanted in a depth of 2 cm in each pot. In another pot, seeds of barnyardgrass were sown and incorporated into the surface layer of soil. After sowing and transplanting of rice plant and sowing of barnyardgrass, the pots were flooded with water 3 cm deep and kept in a greenhouse. The rice plant was treated with the chemicals 5 days after sowing or transplanting, and barnyardgrass was treated with the chemicals at the pre-emergence (5 days after from sowing) and post-emergence stage (at the three-leaf stage, usually after 15 days from sowing).
(§2) Suitable herbicidal compositions were prepared by mixing and dissolving 1 part by weight of the active compound with 5 parts by weight of acetone and 1 part by weight of alkylaryl polyglycolether as an emulsifier and then diluting with water to the predetermined concentration. Application was made by dropping the herbicide solutions onto the water surface of the pots.

Oryza sativa = test: Phytotoxicity to rice (direct-seeded and transplanted) in paddy condition, greenhouse pot test; type: in vivo; conditions: visual rating after two weeks; for Phytotoxicity, Oryza sativa, Seed: direct-seeded rice, treated 5 days after sowing; for Phytotoxicity, Oryza sativa, Transplanted: transplanted rice seedlings, treated 5 days after transplanting
Source text: as §1, §2

[1] = post-emergence, three-leaf stage, read-out: Herbicidal activity, Echinochloa crus-galli, Post-emergence (3-Leaf stage)
[2] = pre-emergence (5 days after sowing), read-out: Herbicidal activity, Echinochloa crus-galli, Pre-emergence
[3] = 20 g/ha, post-emergence, three-leaf stage, read-out: Herbicidal activity, Echinochloa crus-galli, Post-emergence (3-Leaf stage)
[4] = 20 g/ha, pre-emergence (5 days after sowing), read-out: Herbicidal activity, Echinochloa crus-galli, Pre-emergence
[5] = pre-emergence (5 days after sowing), 0 = no activity, 100 = complete death, read-out: Herbicidal activity, Echinochloa crus-galli, Pre-emergence
[6] = 80 g/ha, 0 = none, 100 = complete death

SMILES: COc1cc(OC)nc(NC(=O)NS(=O)(=O)c2ccccc2[C@@H](O)[C@H](C)F)n1 [Standard Compound A, reference compound]
- pest or weed control at 5 g/ha (Echinochloa crus-galli; [1]): 60%
- pest or weed control at 5 g/ha (Echinochloa crus-galli; [2]): 60%
- pest or weed control at 10 g/ha (Echinochloa crus-galli; [1]): 90%
- pest or weed control at 10 g/ha (Echinochloa crus-galli; [2]): 100%
- pest or weed control at 20 g/ha (Echinochloa crus-galli; [3]): 95%
- pest or weed control at 20 g/ha (Echinochloa crus-galli; [4]): 100%
- pest or weed control at 30 g/ha (Echinochloa crus-galli; [1]): 100%
- pest or weed control at 30 g/ha (Echinochloa crus-galli; [5]): 100%
- Phytotoxicity, Oryza sativa, Seed (Oryza sativa; 10 g/ha): 40%
- Phytotoxicity, Oryza sativa, Transplanted (Oryza sativa; 10 g/ha): 20%
- Phytotoxicity, Oryza sativa, Seed (Oryza sativa; 20 g/ha): 40%
- Phytotoxicity, Oryza sativa, Transplanted (Oryza sativa; 20 g/ha): 30%
- Phytotoxicity, Oryza sativa, Seed (Oryza sativa; 40 g/ha): 50%
- Phytotoxicity, Oryza sativa, Transplanted (Oryza sativa; 40 g/ha): 40%
- Phytotoxicity, Oryza sativa, Seed (Oryza sativa; [6]): 80%
- Phytotoxicity, Oryza sativa, Transplanted (Oryza sativa; 80 g/ha): 70%

SMILES: CCOC(=O)c1cnn(C)c1S(=O)(=O)NC(=O)Nc1nc(OC)cc(OC)n1 [Standard Compound E, Pyrazosulfuron-ethyl, reference compound]
- herbicidal activity to barnyardgrass (Echinochloa crus-galli; 20 g/ha, pre- or post-emergence treatments): 10%
- pest or weed control at 5 g/ha (Echinochloa crus-galli; [1]): 0%
- pest or weed control at 5 g/ha (Echinochloa crus-galli; [2]): 0%
- pest or weed control at 10 g/ha (Echinochloa crus-galli; [1]): 0%
- pest or weed control at 10 g/ha (Echinochloa crus-galli; [2]): 10%
- pest or weed control at 20 g/ha (Echinochloa crus-galli; [3]): 0%
- pest or weed control at 20 g/ha (Echinochloa crus-galli; [4]): 20%
- pest or weed control at 30 g/ha (Echinochloa crus-galli; [1]): 20%
- pest or weed control at 30 g/ha (Echinochloa crus-galli; [5]): 30%
- Phytotoxicity, Oryza sativa, Seed (Oryza sativa; 10 g/ha): 0%
- Phytotoxicity, Oryza sativa, Transplanted (Oryza sativa; 10 g/ha): 0%
- Phytotoxicity, Oryza sativa, Seed (Oryza sativa; 20 g/ha): 10%
- Phytotoxicity, Oryza sativa, Transplanted (Oryza sativa; 20 g/ha): 0%
- Phytotoxicity, Oryza sativa, Seed (Oryza sativa; 40 g/ha): 20%
- Phytotoxicity, Oryza sativa, Transplanted (Oryza sativa; 40 g/ha): 0%
- Phytotoxicity, Oryza sativa, Seed (Oryza sativa; [6]): 30%
- Phytotoxicity, Oryza sativa, Transplanted (Oryza sativa; 80 g/ha): 10%

SMILES: COc1cc(OC)nc(NC(=O)NS(=O)(=O)c2cccnc2[C@@H](O)[C@H](C)F)n1 [Standard Compound C, reference compound]
- pest or weed control at 5 g/ha (Echinochloa crus-galli; [1]): 60%
- pest or weed control at 5 g/ha (Echinochloa crus-galli; [2]): 40%
- pest or weed control at 10 g/ha (Echinochloa crus-galli; [1]): 90%
- pest or weed control at 10 g/ha (Echinochloa crus-galli; [2]): 100%
- pest or weed control at 20 g/ha (Echinochloa crus-galli; [3]): 100%
- pest or weed control at 20 g/ha (Echinochloa crus-galli; [4]): 100%
- pest or weed control at 30 g/ha (Echinochloa crus-galli; [1]): 100%
- pest or weed control at 30 g/ha (Echinochloa crus-galli; [5]): 100%
- Phytotoxicity, Oryza sativa, Seed (Oryza sativa; 10 g/ha): 10%
- Phytotoxicity, Oryza sativa, Transplanted (Oryza sativa; 10 g/ha): 10%
- Phytotoxicity, Oryza sativa, Seed (Oryza sativa; 20 g/ha): 20%
- Phytotoxicity, Oryza sativa, Transplanted (Oryza sativa; 20 g/ha): 20%
- Phytotoxicity, Oryza sativa, Seed (Oryza sativa; 40 g/ha): 30%
- Phytotoxicity, Oryza sativa, Transplanted (Oryza sativa; 40 g/ha): 30%
- Phytotoxicity, Oryza sativa, Seed (Oryza sativa; [6]): 70%
- Phytotoxicity, Oryza sativa, Transplanted (Oryza sativa; 80 g/ha): 50%

SMILES: COc1cc(OC)nc(NC(=O)NS(=O)(=O)c2cccnc2[C@@H](OC(C)=O)[C@H](C)F)n1 [Standard Compound D, reference compound]
- pest or weed control at 5 g/ha (Echinochloa crus-galli; [1]): 50%
- pest or weed control at 5 g/ha (Echinochloa crus-galli; [2]): 30%
- pest or weed control at 10 g/ha (Echinochloa crus-galli; [1]): 90%
- pest or weed control at 10 g/ha (Echinochloa crus-galli; [2]): 100%
- pest or weed control at 20 g/ha (Echinochloa crus-galli; [3]): 100%
- pest or weed control at 20 g/ha (Echinochloa crus-galli; [4]): 100%
- pest or weed control at 30 g/ha (Echinochloa crus-galli; [1]): 100%
- pest or weed control at 30 g/ha (Echinochloa crus-galli; [5]): 100%
- Phytotoxicity, Oryza sativa, Seed (Oryza sativa; 10 g/ha): 10%
- Phytotoxicity, Oryza sativa, Transplanted (Oryza sativa; 10 g/ha): 0%
- Phytotoxicity, Oryza sativa, Seed (Oryza sativa; 20 g/ha): 20%
- Phytotoxicity, Oryza sativa, Transplanted (Oryza sativa; 20 g/ha): 10%
- Phytotoxicity, Oryza sativa, Seed (Oryza sativa; 40 g/ha): 30%
- Phytotoxicity, Oryza sativa, Transplanted (Oryza sativa; 40 g/ha): 20%
- Phytotoxicity, Oryza sativa, Seed (Oryza sativa; [6]): 60%
- Phytotoxicity, Oryza sativa, Transplanted (Oryza sativa; 80 g/ha): 50%

SMILES: COc1cc(OC)nc(NC(=O)NS(=O)(=O)c2cccnc2[C@@H](OC(=O)CO)[C@H](C)F)n1 [Com. 1]
- pest or weed control at 5 g/ha (Echinochloa crus-galli; [1]): 60%
- pest or weed control at 5 g/ha (Echinochloa crus-galli; [2]): 50%
- pest or weed control at 10 g/ha (Echinochloa crus-galli; [1]): 80%
- pest or weed control at 10 g/ha (Echinochloa crus-galli; [2]): 80%
- pest or weed control at 20 g/ha (Echinochloa crus-galli; [3]): 90%
- pest or weed control at 20 g/ha (Echinochloa crus-galli; [4]): 90%
- pest or weed control at 30 g/ha (Echinochloa crus-galli; [1]): 100%
- pest or weed control at 30 g/ha (Echinochloa crus-galli; [5]): 90%
- Phytotoxicity, Oryza sativa, Seed (Oryza sativa; 10 g/ha): 0%
- Phytotoxicity, Oryza sativa, Transplanted (Oryza sativa; 10 g/ha): 0%
- Phytotoxicity, Oryza sativa, Seed (Oryza sativa; 20 g/ha): 10%
- Phytotoxicity, Oryza sativa, Transplanted (Oryza sativa; 20 g/ha): 10%
- Phytotoxicity, Oryza sativa, Seed (Oryza sativa; 40 g/ha): 30%
- Phytotoxicity, Oryza sativa, Transplanted (Oryza sativa; 40 g/ha): 10%
- Phytotoxicity, Oryza sativa, Seed (Oryza sativa; [6]): 30%
- Phytotoxicity, Oryza sativa, Transplanted (Oryza sativa; 80 g/ha): 20%

SMILES: COc1cc(OC)nc(NC(=O)NS(=O)(=O)c2cccnc2[C@@H](OC(=O)CCO)[C@H](C)F)n1 [Com. 3]
- pest or weed control at 5 g/ha (Echinochloa crus-galli; [1]): 60%
- pest or weed control at 5 g/ha (Echinochloa crus-galli; [2]): 60%
- pest or weed control at 10 g/ha (Echinochloa crus-galli; [1]): 80%
- pest or weed control at 10 g/ha (Echinochloa crus-galli; [2]): 90%
- pest or weed control at 20 g/ha (Echinochloa crus-galli; [3]): 90%
- pest or weed control at 20 g/ha (Echinochloa crus-galli; [4]): 95%
- pest or weed control at 30 g/ha (Echinochloa crus-galli; [1]): 100%
- pest or weed control at 30 g/ha (Echinochloa crus-galli; [5]): 100%
- Phytotoxicity, Oryza sativa, Seed (Oryza sativa; 10 g/ha): 0%
- Phytotoxicity, Oryza sativa, Transplanted (Oryza sativa; 10 g/ha): 5%
- Phytotoxicity, Oryza sativa, Seed (Oryza sativa; 20 g/ha): 10%
- Phytotoxicity, Oryza sativa, Transplanted (Oryza sativa; 20 g/ha): 10%
- Phytotoxicity, Oryza sativa, Seed (Oryza sativa; 40 g/ha): 30%
- Phytotoxicity, Oryza sativa, Transplanted (Oryza sativa; 40 g/ha): 20%
- Phytotoxicity, Oryza sativa, Seed (Oryza sativa; [6]): 30%
- Phytotoxicity, Oryza sativa, Transplanted (Oryza sativa; 80 g/ha): 20%

SMILES: COCC(=O)O[C@H](c1nccc(Br)c1S(=O)(=O)NC(=O)Nc1nc(OC)cc(OC)n1)[C@H](C)F [Com. 6]
- pest or weed control at 5 g/ha (Echinochloa crus-galli; [1]): 50%
- pest or weed control at 5 g/ha (Echinochloa crus-galli; [2]): 60%
- pest or weed control at 10 g/ha (Echinochloa crus-galli; [1]): 70%
- pest or weed control at 10 g/ha (Echinochloa crus-galli; [2]): 80%
- pest or weed control at 20 g/ha (Echinochloa crus-galli; [3]): 90%
- pest or weed control at 20 g/ha (Echinochloa crus-galli; [4]): 100%
- pest or weed control at 30 g/ha (Echinochloa crus-galli; [1]): 100%
- pest or weed control at 30 g/ha (Echinochloa crus-galli; [5]): 100%
- Phytotoxicity, Oryza sativa, Seed (Oryza sativa; 10 g/ha): 0%
- Phytotoxicity, Oryza sativa, Transplanted (Oryza sativa; 10 g/ha): 0%
- Phytotoxicity, Oryza sativa, Seed (Oryza sativa; 20 g/ha): 0%
- Phytotoxicity, Oryza sativa, Transplanted (Oryza sativa; 20 g/ha): 0%
- Phytotoxicity, Oryza sativa, Seed (Oryza sativa; 40 g/ha): 10%
- Phytotoxicity, Oryza sativa, Transplanted (Oryza sativa; 40 g/ha): 0%
- Phytotoxicity, Oryza sativa, Seed (Oryza sativa; [6]): 20%
- Phytotoxicity, Oryza sativa, Transplanted (Oryza sativa; 80 g/ha): 20%

SMILES: COc1cc(OC)nc(NC(=O)NS(=O)(=O)c2ccccc2[C@@H](OC(C)=O)[C@H](C)F)n1 [Standard Compound B, reference compound]
- pest or weed control at 5 g/ha (Echinochloa crus-galli; [1]): 50%
- pest or weed control at 5 g/ha (Echinochloa crus-galli; [2]): 50%
- pest or weed control at 10 g/ha (Echinochloa crus-galli; [1]): 90%
- pest or weed control at 10 g/ha (Echinochloa crus-galli; [2]): 100%
- pest or weed control at 20 g/ha (Echinochloa crus-galli; [3]): 90%
- pest or weed control at 20 g/ha (Echinochloa crus-galli; [4]): 100%
- pest or weed control at 30 g/ha (Echinochloa crus-galli; [1]): 100%
- pest or weed control at 30 g/ha (Echinochloa crus-galli; [5]): 100%
- Phytotoxicity, Oryza sativa, Seed (Oryza sativa; 10 g/ha): 30%
- Phytotoxicity, Oryza sativa, Transplanted (Oryza sativa; 10 g/ha): 20%
- Phytotoxicity, Oryza sativa, Seed (Oryza sativa; 20 g/ha): 40%
- Phytotoxicity, Oryza sativa, Transplanted (Oryza sativa; 20 g/ha): 20%
- Phytotoxicity, Oryza sativa, Seed (Oryza sativa; 40 g/ha): 50%
- Phytotoxicity, Oryza sativa, Transplanted (Oryza sativa; 40 g/ha): 40%
- Phytotoxicity, Oryza sativa, Seed (Oryza sativa; [6]): 70%
- Phytotoxicity, Oryza sativa, Transplanted (Oryza sativa; 80 g/ha): 60%
